From US20110212218A1, “Method for modulating animal digestive tract microbiota and feed composition comprising bark extract” (UPM-KYMMENE CORPORATION, priority 2009, published 2011)
Like-named read-outs stand apart in the source and are kept apart here.

System: ileal microbial metabolism
Experiment: Broiler ileal simulation in vitro, SCFA production
Type: cell-based, broilers

SMILES	total production of short chain fatty acids (SCFA) (ileal simulation, 12 hours (FIG. 6))	total production of short chain fatty acids (SCFA)
CC[C@@H](C(=O)O)[C@@H]1O[C@@H]([C@@H](C)[C@H](O)[C@H](C)C(=O)[C@H](CC)[C@H]2O[C@]3(C=C[C@@H](O)[C@]4(CC[C@@](C)([C@H]5CC[C@](O)(CC)[C@H](C)O5)O4)O3)[C@H](C)C[C@@H]2C)[C@@H](C)C[C@@H]1C [Narasin]	decreased	
C=C(C)[C@@H]1CC[C@]2(CO)CC[C@]3(C)[C@H](CC[C@@H]4[C@@]5(C)CC[C@H](O)C(C)(C)[C@@H]5CC[C@]43C)[C@@H]12 [fraction C, betulinol]		increased
